Counter-ions that a name gives are not always drawn.
Legend:
[1] = biological target: T1, PLK1 kinase domain (Homo sapiens, UniProt P53350); assay: Assay for Inhibition of PLK1 (SPA enzyme activity); assay type: biochemical; settings: 2 μM ATP, read-out: Ave pIC50 PLK Enzyme Inhibition (converted)
T1 construct: made in house; host or cells: baculovirus-infected T. ni insect cells
Procedure: All procedures were performed at 4° C. Cells were lysed in so mM HEPES, 200 mM NaCl, so mM imidazole, 5% glycerol; pH 7.5. The homogenate was centrifuged at 14K rpm in a SLA-1500 rotor for 1 hr and the supernatant filtered through a 1.2 micron filter. The supernatant was loaded onto a Nickel chelating Sepharose (Amersham Pharmacia) column and washed with lysis buffer. Protein was eluted using 20%, 30% and 100% buffer B steps where buffer B is 50 mM HEPES, 200 mM NaCl, 300 mM imidazole, 5% glycerol; pH 7.5. Fractions containing PLK were determined by SDS-PAGE. Fractions containing PLK were diluted five-fold with so mM HEPES, 1 mM DTT, 5% glycerol; pH 7.5, then loaded on an SP Sepharose (Amersham Pharmacia) column. After washing the column with so mM HEPES, 1 mM DTT, 5% glycerol; pH 7.5, PLK was step eluted with so mM HEPES, 1 mM DTT, 500 mM NaCl; 5% glycerol; pH 7.5. PLK was concentrated using a 10 kDa molecular weight cutoff membrane and then loaded onto a Superdex 200 gel filtration (Amersham Pharmacia) column equilibrated in 25 mM HEPES, 1 mM DTT, 500 mM NaCl, 5% glycerol; pH 7.5. Fractions containing PLK were determined by SDS-PAGE. PLK was pooled, aliquoted and stored at −80° C. Samples were quality controlled using mass spectrometry, N-terminal sequencing and amino acid analysis.
B. Enzyme activity+/−inhibitors was determined as follows:
Compounds were added to the plate (1 μl in […]). […] Reaction Mix B is prepared as follows at 4° C.: • Reaction Mix B (Enzyme Mix) • 25 mM HEPES, pH 7.2 • 15 mM MgCl2 • 0.15 mg/ml BSA • 2 mM DTT • 2-10 nM PLK1 kinase domain
Reaction Mix A (20 μl) is added per well. Reaction Mix B (20 μl) is added per well. Incubate 1.5 hrs. at RT. The enzymatic reaction is stopped with 175 μl of SPA/EDTA bead mix (29 mM EDTA, 2.5 mg/ml Streptavidin-coated SPA in Standard Dulbecco's PBS (without Mg^2+ and Ca^2+), 60 μM ATP). Plates are sealed spun (after a 1 hr incubation at RT) at 1,000×g for 7 min or settled overnight, then plates counted in Packard TopCount for 30 seconds/well.

[2] = tested on: lung (H460) tumor cell line; assay: Methylene Blue Growth Inhibition Assay, H460; assay type: cell-based; settings: Homo sapiens, NCI-H460, 72 h; Cell Line H460, 3 days; read-out: MeB IC50
Procedure: (§1) Normal Human foreskin fibroblasts (HFF) and human colon (HCT116, RKO), lung (H460), prostate (PC3), and breast tumor (MCF7) cell lines were cultured in high glucose DMEM (Life Technologies) containing 10% fetal bovine serum (FBS) at 37° C. in a humidified 10% CO2, 90% air incubator. Cells were harvested using trypsin/EDTA, counted using a haemocytometer, and plated in 100 μl of the appropriate media, at the following densities, in a 96-well tissue culture plate (Falcon 3075): HFF 5,000 cells/well, HCT116 3,000 cells/well, RKO 2,500 cells/well, H460 2,000 cells/well, PC3 8,000 cells/well, MCF7 4,000 cells/well. The next day, compounds were diluted in DMEM containing 100 μg/ml gentamicin, at twice the final required concentration, from 10 mM stock solutions in DMSO. 100μ/well of these dilutions were added to the 100 μl of media currently on the cell plates. Medium containing 0.6% DMSO was added to control wells. Compounds diluted in DMEM were added to all cell lines. The final concentration of DMSO in all wells was 0.3%. Cells were incubated at 37° C., 10% CO2 for 3 days. Medium was removed by aspiration. Cell biomass was estimated by staining cells with […] per well methylene blue (Sigma M9140, 0.5% in 50:50 ethanol:water), and incubation at room temperature for at least 30 minutes. Stain was removed, and the plates rinsed under a gentle stream of water, and air-dried. To release stain from the cells 100 μl of solubilization solution was added (1% N-lauroyl sarcosine, Sodium salt, Sigma L5125, in PBS), and plates were shaken gently for about 30 minutes. Optical density at 620 nm was measured on a microplate reader. Percent inhibition of cell growth was calculated relative to vehicle treated control wells. Concentration of compound that inhibits 50% of cell growth (IC50) was interpolated using nonlinear regression (Levenberg-Marquardt) and the equation, y=Vmax*(1-(x/(K+x)))+Y2, where “K” was equal to the IC50. In Table 1, +=10−>30 uM; ++=1−10 uM: +++=<1 uM.

[3] = tested on: colon (HCT116) tumor cell line; assay: Methylene Blue Growth Inhibition Assay, HCT116; assay type: cell-based; settings: Homo sapiens, HCT-116, 72 h; Cell Line HCT116, 3 days; read-out: MeB IC50
Procedure: as §1

[4] = tested on: Normal Human foreskin fibroblasts (HFF); assay: Methylene Blue Growth Inhibition Assay, HFF; assay type: cell-based; settings: 72 h, Cell Line HFF, 3 days, read-out: MeB IC50
Procedure: as §1

[5] = tested on: breast tumor (MCF7) cell line; assay: Methylene Blue Growth Inhibition Assay, MCF7; assay type: cell-based; settings: Homo sapiens, 72 h; Cell Line MCF7, 3 days; read-out: MeB IC50
Procedure: as §1

[6] = tested on: prostate (PC3) tumor cell line; assay: Methylene Blue Growth Inhibition Assay, PC3; assay type: cell-based; settings: Homo sapiens, 72 h; Cell Line PC3, 3 days; read-out: MeB IC50
Procedure: as §1

[7] = tested on: colon (RKO) tumor cell line; assay: Methylene Blue Growth Inhibition Assay, RKO; assay type: cell-based; settings: Homo sapiens, 72 h, 3 days, read-out: MeB IC50
Procedure: as §1

T1 sequence (P53350 21-346): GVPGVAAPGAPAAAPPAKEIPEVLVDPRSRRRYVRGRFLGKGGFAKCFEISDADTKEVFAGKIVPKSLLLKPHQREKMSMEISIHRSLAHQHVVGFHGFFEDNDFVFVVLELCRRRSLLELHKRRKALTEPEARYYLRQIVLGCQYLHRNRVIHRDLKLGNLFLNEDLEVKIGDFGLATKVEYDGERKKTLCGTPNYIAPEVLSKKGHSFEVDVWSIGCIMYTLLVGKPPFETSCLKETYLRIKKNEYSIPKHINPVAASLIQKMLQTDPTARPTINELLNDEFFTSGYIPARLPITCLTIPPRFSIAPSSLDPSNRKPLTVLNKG

Structure (SMILES) | IC50 [1] [µM] | IC50 [2] [µM] | IC50 [3] [µM] | IC50 [5] [µM] | IC50 [6] [µM] | IC50 [7] [µM] | IC50 [4] [µM]
COC(=O)c1sc(-n2cnc3cc(OC)c(OC)cc32)cc1OS(=O)(=O)C(F)(F)F [Example 150, Methyl 5-(5,6-dimethoxy-1H-benzimidazol-1-yl)-3-{[(trifluoromethyl)sulfonyl]oxy}thiophene-2-carboxylate] | 0.1 to 10 | > 10 | > 10 | > 10 | > 10 | > 10 | > 10
COc1cc2ncn(-c3cc(O)c(C(N)=O)s3)c2cc1OC [Example 152, 5-(5,6-Dimethoxy-1H-benzimidazol-1-yl)-3-hydroxythiophene-2-carboxamide trifluoroacetate] | 0.1 to 10 | > 10 | > 10 | > 10 | > 10 | > 10 | > 10
COc1cc2ncn(-c3cc(OCC4CCCCO4)c(C(N)=O)s3)c2cc1OC (stereo not drawn) [Example 112, 5-(5,6-Dimethoxy-1H-benzimidazol-1-yl)-3-(tetrahydro-2H-pyran-2-ylmethoxy)thiophene-2-carboxamide] | 0.1 to 10 | 1 to 10 | > 10 | > 10 | > 10 | 1 to 10 | > 10
O=C(O)c1sc(-n2cnc3cc(Cl)c(Cl)cc32)cc1OCc1ccco1 [Example 78, 5-(5,6-Dichloro-1H-benzimidazol-1-yl)-3-(2-furylmethoxy)thiophene-2-carboxylic acid] | < 0.1 | > 10 | > 10 | > 10 | > 10 | > 10 | > 10
O=C(O)c1sc(-n2cnc3cc(Cl)c(Cl)cc32)cc1OCc1cccs1 [Example 80, 5-(5,6-Dichloro-1H-benzimidazol-1-yl)-3-(thien-2-ylmethoxy)-thiophene-2-carboxylic acid] | < 0.1 | > 10 | > 10 | > 10 | > 10 | > 10 | > 10
COc1cc2ncn(-c3cc(OCc4ccccc4-c4ccccc4)c(C(N)=O)s3)c2cc1OC [Example 93, 3-(1,1′-Biphenyl-2-ylmethoxy)-5-(5,6-dimethoxy-1H-benzimidazol-1-yl)thiophene-2-carboxamide] | 0.1 to 10 | > 10 | > 10 | > 10 | > 10 | > 10 | > 10
COc1cc2ncn(-c3cc(OCc4ccccc4C#N)c(C(N)=O)s3)c2cc1OC [Example 95, 3-[(2-Cyanobenzyl)oxy]-5-(5,6-dimethoxy-1H-benzimidazol-1-yl)thiophene-2-carboxamide] | < 0.1 | 1 to 10 | 1 to 10 | 1 to 10 | > 10 | 1 to 10 | > 10
COc1cc2ncn(-c3cc(OCc4ccnc(N)c4)c(C(N)=O)s3)c2cc1OC [Example 100, 3-[(2-Aminopyridin-4-yl)methoxy]-5-(5,6-dimethoxy-1H-benzimidazol-1-yl)thiophene-2-carboxamide] | < 0.1 | > 10 | > 10 | > 10 | > 10 | > 10 | > 10

Continued, in another order:

IC50 [1] [µM] | IC50 [2] [µM] | IC50 [3] [µM] | IC50 [5] [µM] | IC50 [6] [µM] | IC50 [7] [µM] | Structure (SMILES) | IC50 [4] [µM]
< 0.1 | < 1 | < 1 | < 1 | 1 to 10 | < 1 | COc1cc2ncn(-c3cc(OCc4ccccc4[N+](=O)[O-])c(C(N)=O)s3)c2cc1OC [Example 92, 5-(5,6-Dimethoxy-1H-benzimidazol-1-yl)-3-[(2-nitrobenzyl)oxy]thiophene-2-carboxamide] | 1 to 10
< 0.1 | 1 to 10 | 1 to 10 | 1 to 10 | > 10 | 1 to 10 | NC(=O)c1sc(-n2cnc3ccc(OCC(F)(F)F)cc32)cc1OCc1ccccc1C(F)(F)F [Example 87, 5-[6-(2,2,2-Trifluoroethoxy)-1H-benzimidazol-1-yl]-3-{[2-(trifluoromethyl)benzyl]oxy}thiophene-2-carboxamide] | > 10
< 0.1 | 1 to 10 | < 1 | 1 to 10 | 1 to 10 | 1 to 10 | COc1cc2ncn(-c3cc(OCc4ccccc4C(F)(F)F)c(C(N)=O)s3)c2cc1OCCN1CCOCC1 [Example 137, 5-(5-(Methyloxy)-6-{[2-(4-morpholinyl)ethyl]oxy}-1H-benzimidazol-1-yl)-3-({[2-(trifluoromethyl)phenyl]methyl}oxy)-2-thiophenecarboxamide] | > 10
< 0.1 | < 1 | 1 to 10 | < 1 | > 10 | < 1 | COc1ccc2ncn(-c3cc(OCc4ccccc4C(F)(F)F)c(C(N)=O)s3)c2c1 [Example 118] | 1 to 10
< 0.1 | < 1 | 1 to 10 | 1 to 10 | > 10 | 1 to 10 | COc1cc2ncn(-c3cc(OCc4c(Cl)cccc4Cl)c(C(N)=O)s3)c2cc1OC [Example 64, 3-[(2,6-Dichlorobenzyl)oxy]-5-(5,6-dimethoxy-1H-benzimidazol-1-yl)thiophene-2-carboxamide] | > 10
< 0.1 | 1 to 10 | 1 to 10 | 1 to 10 | > 10 | 1 to 10 | NC(=O)c1sc(-n2cnc3ccc(C(F)(F)F)cc32)cc1OCc1ccccc1Br [Example 119, 3-[(2-Bromobenzyl)oxy]-5-[6-(trifluoromethyl)-1H-benzimidazol-1-yl]thiophene-2-carboxamide] | > 10
< 0.1 | 1 to 10 | < 1 | 1 to 10 | 1 to 10 | < 1 | COc1cc2ncn(-c3cc(OCc4ccccc4C=O)c(C(N)=O)s3)c2cc1OC [Example 110, 5-(5,6-Dimethoxy-1H-benzimidazol-1-yl)-3-[(2-formylbenzyl)oxy]thiophene-2-carboxamide] | > 10

Reference: patent US20080269298A1, “Benzimidazol-1-YL-thiophene compounds for the treatment of cancer” (priority 2002, published 2008)
